Measurements from patent US8877748B2, “Heterocyclic fused anthraquinone derivatives, manufacturing method and pharmaceutical composition using thereof” (National Defense Medical Center, priority 2012, dated 2014).

How the values were obtained:
RXF, 393 = assay: NCI one-dose screening, renal cancer RXF, 393; assay type: cell-based, human; conditions: RXF 393, 10 μM
MOLT-4 = assay: NCI one-dose screening, leukemia MOLT-4; assay type: cell-based, human; conditions: MOLT-4, 10 μM
DU145 = assay: NCI one-dose screening, prostate cancer DU145; assay type: cell-based, human; conditions: DU145, 10 μM
HOP-62 = assay: NCI one-dose screening, non-small cell lung cancer HOP-62; assay type: cell-based, human; conditions: HOP-62, 10 μM
HCT-15 = assay: NCI one-dose screening, colon cancer HCT-15; assay type: cell-based, human; conditions: HCT-15, 10 μM
SK-MEL-5 = assay: NCI one-dose screening, melanoma SK-MEL-5; assay type: cell-based, human; conditions: SK-MEL-5, 10 μM
KM12 = assay: NCI one-dose screening, colon cancer KM12; assay type: cell-based, human; conditions: KM12, 10 μM
SK-MEL-28 = assay: NCI one-dose screening, melanoma SK-MEL-28; assay type: cell-based, human; conditions: SK-MEL-28, 10 μM
UO-31 = assay: NCI one-dose screening, renal cancer UO-31; assay type: cell-based, human; conditions: UO-31, 10 μM
SK-MEL-2 = assay: NCI one-dose screening, melanoma SK-MEL-2; assay type: cell-based, human; conditions: SK-MEL-2, 10 μM
ACHN = assay: NCI one-dose screening, renal cancer ACHN; assay type: cell-based, human; conditions: ACHN
SF-539 = assay: NCI one-dose screening, CNS cancer SF-539; assay type: cell-based, human; conditions: SF-539, 10 μM
NCl/ADR-RES = assay: NCI one-dose screening, breast cancer NCl/ADR-RES; assay type: cell-based, human; conditions: Ovarian cancer, NCI/ADR-RES
OVCAR-8 = assay: NCI one-dose screening, ovarian cancer OVCAR-8; assay type: cell-based, human; conditions: OVCAR-8, 10 μM
SR = assay: NCI one-dose screening, leukemia SR; assay type: cell-based, human; conditions: SR
HOP-92 = assay: NCI one-dose screening, non-small cell lung cancer HOP-92; assay type: cell-based, human; conditions: HOP-92, 10 μM

O=C1c2ccccc2C(=O)c2c1cc(N1CCCC1)c1nsnc21 [C7, 4-(pyrrolidine-1-yl)anthra-[2,1-c][1,2,5] thiadiazol-6,11-dione]
Growth Percent (10 μM) (RXF, 393): 97.02%
Growth Percent (10 μM) (MOLT-4): 92.84%
Growth Percent (10 μM) (DU145): 105.08%
Growth Percent (10 μM) (HOP-62): 79.16%
Growth Percent (10 μM) (HCT-15): 61.25%
Growth Percent (10 μM) (SK-MEL-5): 31.12%
Growth Percent (10 μM) (KM12): 95.18%
Growth Percent (10 μM) (SK-MEL-28): 99.46%
Growth Percent (10 μM) (UO-31): 41.64%
Growth Percent (10 μM) (SK-MEL-2): 115.43%
Growth Percent (10 μM) (ACHN): 82.97%
Growth Percent (10 μM) (SF-539): 97.27%
Growth Percent (10 μM) (NCl/ADR-RES): 86.36%
Growth Percent (10 μM) (OVCAR-8): 82.12%
Growth Percent (10 μM) (SR): 84.23%

CN(C)CCNc1cc2c(c3nsnc13)C(=O)c1ccccc1C2=O [C8]
Growth Percent (10 μM) (RXF, 393): −59.58%
Growth Percent (10 μM) (MOLT-4): −41.28%
Growth Percent (10 μM) (HOP-92): −25.30%
Growth Percent (10 μM) (DU145): −95.45%
Growth Percent (10 μM) (HOP-62): −67.97%
Growth Percent (10 μM) (HCT-15): −60.44%
Growth Percent (10 μM) (SK-MEL-5): −98.79%
Growth Percent (10 μM) (KM12): −21.66%
Growth Percent (10 μM) (SK-MEL-28): −50.60%
Growth Percent (10 μM) (UO-31): −28.47%
Growth Percent (10 μM) (SK-MEL-2): −66.52%
Growth Percent (10 μM) (ACHN): −22.86%
Growth Percent (10 μM) (SF-539): −82.05%
Growth Percent (10 μM) (NCl/ADR-RES): −23.20%
Growth Percent (10 μM) (OVCAR-8): −28.91%
Growth Percent (10 μM) (SR): −49.98%

CC(C)Sc1cc2c(c3nsnc13)C(=O)c1ccccc1C2=O [C18, 4-(isopropylthio)anthra[2,1-c][1,2,5] thiadiazol-6,11-dione]
Growth Percent (10 μM) (RXF, 393): 13.64%
Growth Percent (10 μM) (MOLT-4): −54.56%
Growth Percent (10 μM) (DU145): 6.66%
Growth Percent (10 μM) (HOP-62): 13.18%
Growth Percent (10 μM) (HCT-15): 15.31%
Growth Percent (10 μM) (SK-MEL-5): −99.20%
Growth Percent (10 μM) (KM12): 19.33%
Growth Percent (10 μM) (SK-MEL-28): −8.32%
Growth Percent (10 μM) (UO-31): −28.43%
Growth Percent (10 μM) (SK-MEL-2): −55.62%
Growth Percent (10 μM) (ACHN): 0.80%
Growth Percent (10 μM) (SF-539): −47.01%
melting point: 193 to 194 °C
Growth Percent (10 μM) (NCl/ADR-RES): −24.93%
Growth Percent (10 μM) (OVCAR-8): −22.64%
Growth Percent (10 μM) (SR): −47.97%

Cc1ccc(Nc2cc3c(c4nsnc24)C(=O)c2ccccc2C3=O)cc1 [C64, 4-(p-tolylamino)anthra[2,1-c][1,2,5] thiadiazol-6,11-dione]
Growth Percent (10 μM) (RXF, 393): 71.05%
Growth Percent (10 μM) (MOLT-4): 12.86%
Growth Percent (10 μM) (DU145): 68.26%
Growth Percent (10 μM) (HOP-62): 65.10%
Growth Percent (10 μM) (HCT-15): 32.24%
Growth Percent (10 μM) (SK-MEL-5): 24.13%
Growth Percent (10 μM) (KM12): 64.56%
Growth Percent (10 μM) (SK-MEL-28): 74.97%
Growth Percent (10 μM) (UO-31): 56.97%
Growth Percent (10 μM) (SK-MEL-2): 93.85%
Growth Percent (10 μM) (ACHN): 57.60%
Growth Percent (10 μM) (SF-539): 70.48%
Growth Percent (10 μM) (NCl/ADR-RES): 61.34%
Growth Percent (10 μM) (OVCAR-8): 53.96%
Growth Percent (10 μM) (SR): 26.12%
